Results from patent US20210087238A1, “CELL PENETRATING PEPTIDES AND RELATED COMPOSITIONS AND METHODS” (Phylogica Limited, priority 2017, published 2021).

Experiments:
[1] = test system: CHO-K1 cells stably-expressing EGFR receptor; assay: Bouganin assay: FPP_SpyT conjugated to EGFRAffibody_Bouganin_SpyC toxin, matched CHO-K1 lines (±hEGFR); type: cell-based; settings: 100 nM toxin; 48 h; CHO-K1 EGFR vs CHO-K1
Method: FIG. 9 FPP compatibility with receptor binding delivery (RBD)-mediated delivery and half-life extension by PASylation. (A) a plot showing percent viability of CHO-K1 cells stably-expressing EGFR receptor or (B) CHO-K1 cells were treated with FPP_SpyT conjugated to EGFRAffybody_Bouganin SpyC (EGRFAffbd_Boug_SpyC) toxin. After 48 h incubation cell viability was assessed by resazurin reduction potential. […] Results are representative of 3 independent experiments. Error bars represent standard deviation from the mean of duplicate samples. **P<0.01, ***P<0.001 by one-way ANOVA with Dunnett's multiple comparison test. (C) T47D cells were treated with FPP_PAP_linker_SpyT with and without conjugation to PAS_SpyC recombinant protein. […] Linkers are Cathepsin B FKFL cleavage motif (BF), Cathepsin B Valine-Citrulline cleavage motif (Ba) and Furin RKKR cleavage motif (Fur). Results are representative of 2 independent experiments. Error bars represent standard deviation from the mean of duplicate samples.
All assays followed manufacturer's instructions.

[2] = test system: CHO-K1 cells; assay: β-Lactamase (BLA) bioassay, CCF2-AM cleavage by flow cytometry; type: cell-based; settings: SpyC-BLA/CPP-SpyT conjugates; comparator TAT-SpyTag conjugate
Method: CHO-K1 cells (seeded at 1×10^5 cells/well in 24-well plates) were incubated with purified SpyC_BLA (SEQ ID NO:90) and SpyC_BLA_FPP1.1 (SEQ ID NO:91) proteins at […]/5% CO2 for 2 hours. Cells were washed, detached by 5 mins incubation with trypsin, washed, loaded with the β-lactamase substrate CCF2-AM and analysed by Flow Cytometry; intracellular β-lactamase activity caused an emission shift from 510 nm to 450 nm. The percentages of β-lactamase positive cells for each sample were graphed against the concentration of protein added to the cells. […]
β-Lactamase is a bacterial enzyme that catalyses the opening of β-lactam rings. […] To address this need, β-Lactamase was expressed as C-terminal SpyC fusion, making SpyC-BLA (SEQ ID NO:90). […]
CCF2-AM (Thermofisher Scientific, Australia) is a Fluorescence Resonance Energy Transfer (FRET) substrate that is enzymatically cleaved by β-Lactamase. […] In the presence of β-Lactamase, the fluorescein moiety of CCF2 is enzymatically cleaved, resulting in the emission wavelength shifting to 447 nm (blue). β-Lactamase activity is quantified by measuring the ratio of blue fluorescence to green fluorescence.
The cell-penetrating and endosomal escape ability of FPP1.1 (SEQ ID NO:39) and sequence variant SpyC-BLA/CCP-SpyT conjugates was assessed by flow cytometry to determine cytosolic CCF2-AM cleavage by internalized β-Lactamase. […]

| Sequence | delivery of EGFRAffbd_Boug_SpyC toxin, cell viability [1] | delivery of BLA to the cytosol [2] |
| --- | --- | --- |
| KTQEKKKKQPPKPKKPKTQEKKKKQPPKPKR (Amino acid sequence of a Sindbis virus capsid-derived CPP (del1746)) [FPP1-del] | significantly improved delivery compared to RBD alone but retains RBD encoded specificity |  |
| PKKPKTQEKKKKQPPK (Amino acid sequence of a Sindbis virus capsid-derived CPP (SAR1)) [FPP1-SAR1] |  | ineffective in delivering BLA |
